Measurements as given in PubChem BioAssay (NCI).
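In this assay, cells in 96-well plates receive the compound at five concentrations for 48 hours. Endpoints are linearly interpolated between the surrounding concentrations. At the TGI there is no net growth.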

Key:
Experiment in all cases: DTP human tumour cell line panel, 48 h
MDA-N = tested on: MDA-N
KM20L2 colon = tested on: KM20L2 colon
DMS 273 small cell lung = tested on: DMS 273 small cell lung
SNB-78 CNS = tested on: SNB-78 CNS
XF 498 CNS = tested on: XF 498 CNS
DMS 114 small cell lung = tested on: DMS 114 small cell lung
DLD-1 colon = tested on: DLD-1 colon
HOP-18 NSCLC = tested on: HOP-18 NSCLC
RXF-631 renal = tested on: RXF-631 renal

Structure (SMILES)	TGI (MDA-N) [µM]	TGI (KM20L2 colon) [µM]	TGI (DMS 273 small cell lung) [µM]	TGI (SNB-78 CNS) [µM]	TGI (XF 498 CNS) [µM]	TGI (DMS 114 small cell lung) [µM]	TGI (DLD-1 colon) [µM]	TGI (HOP-18 NSCLC) [µM]	TGI (RXF-631 renal) [µM]
c1cncc(C(Nc2cccc3cccnc23)Nc2cccc3cccnc23)c1	> 100								
O=C(N/N=C/c1cc(Br)cc(Br)c1[O-])c1ccccc1O.O=C(N/N=C/c1cc(Br)cc(Br)c1[O-])c1ccccc1O.[Mn+2]		21.3							
CC(=O)O[C@@H]1CC(C)C2CC2C2=C(C(O)OC2O)[C@@H]1C(C)CCC=C(C)C (stereo partly specified)		39.9	45.3	90.2	49.9	50.4	73.3		
COC1=C(C(=O)OC(C)(C)C)[C@]2(C)C(C(=O)OC(C)(C)C)C(OC)=C(C(=O)OC(C)(C)C)[C@]2(C)C1C(=O)OC(C)(C)C (stereo partly specified)		> 100	> 100	> 100	> 100	> 100	> 100	> 100	
O[C@]12CCCC[C@H]1CCC2			> 100	> 100	> 100	> 100			> 100
C=C1C(=O)O[C@@H]2C[C@@H](C)[C@@H]3[C@@H](OC4OC(COC(C)=O)C(O)C(O)C4O)CC(=O)[C@@]3(C)C[C@H]12 (stereo partly specified)	3.51								
N#CC1(c2nc3ccccc3o2)C(=O)C(=O)N(c2ccc(Cl)c(Cl)c2)C(=O)C1=O		> 100	> 100	> 100	> 100		> 100	> 100	
CN(C)CCCn1c2c3ccccc3ccc2c2oc(=O)c3ccccc3c21		2.78	4.22	39	9.55	4.09	2.99	40.2	
COC1CC(OS(=O)(=O)c2ccc(C)cc2)C(OS(=O)(=O)c2ccc(C)cc2)C(COS(=O)(=O)c2ccc(C)cc2)O1 (stereo unspecified)		30.9	18.6	> 100		15.1	22.7	8.36	
COC[C@H]1OC(=O)c2coc3c2[C@@]1(C)C1=C(C3=O)[C@@H]2CCC(=O)[C@@]2(C)C[C@H]1OC(C)=O	> 100								
O=C1NC2(O)c3ccccc3C(=O)C2(O)N1c1ccccc1 (stereo unspecified)		> 100			> 100	> 100	> 100	> 100	> 100
CC1OC(OC2C(Oc3cc(O)c4c(=O)cc(-c5ccc(O)cc5)oc4c3)OC(CO)C(O)C2O)C(O)C(O)C1O (stereo unspecified)		> 100	> 100	> 100	> 100	> 100	> 100	> 100	
Cc1c(C(=O)CC(=O)C(=O)Nc2cccc(C(F)(F)F)c2)[n+](=O)c2ccccc2n1[O-]		11.8	10.3	25.2		4.43		25.5	11
COc1ccc(/C=C2\CNC/C(=C\c3ccc(OC)cc3)C2=O)cc1		89.6	> 100	> 100	> 100	> 100	> 100	> 100	
Cc1cc2c(c(C#N)c1C)NC(=O)C(CC(=O)O)C2=O (stereo unspecified)		> 100	> 100	> 100	> 100	> 100	> 100	> 100	> 100
Cc1ccc(C2=Nc3ccccc3NC(=O)C2)cc1		> 100	> 100	> 100	93.4	> 100	> 100	> 100	
C=CCN=C1N=C(CC(=O)OCC)CS1		> 100	> 100	> 100	> 100	> 100	> 100	> 100	
COc1cc2c(OC)c(c1)CCCC1=CC(=O)C=C(CCC2)C1=O	30.2								
NC1CCC[C@@H](O)[C@H]1O (stereo partly specified)	> 100								
